The subject of assay [1] is recombinant human Bcl-2-G101V protein. As to the kind of experiment: Bcl-2-G101V TR-FRET Assay. It counts as binding. As to conditions: ratio of biochemical IC50 Bcl-2 G101V / Bcl-2 WT. An outline of the steps: (§1)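 Ex337/em490 & 520 nm TR-FRET; % inhibition of Bcl-2-G101V–ligand interaction from 490:520 ratio vs. increasing compound conc.; IC50 by 4-parameter logistic fit.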
Background: In TR-FRET formats the signal depends on donor and acceptor labels being close together.

Assay [2] deals with BCL-2 G101V knock-in cell line H96 (derive from RS4;11). The experiment in a line: Bcl 2-G101V Knock-In RS4;11 Cell Proliferation Assay. It counts as cell-based. Conditions: RS4;11 Bcl-2 G101V knock-in clone H96, 48 hrs, CellTiter-GLO, read-out: Cellular proliferation assay (IC50, nM) RS4. How it is done: Biological Example: Bcl 2-G101V Knock-In RS4;11 Cell Proliferation Assay
(1) RS4;11 H96 Bcl 2-G101V Knock-In Cell Line Generation
Briefly, RS4;11 BCL2-G101V knock-in cell pool was generated using Crisper/Cas9 gene editing system and the BCL2-G101V knock-in single clone H96 was picked from the knock-in cell pool and validated by WES (whole exome-sequencing) and RNA-seq.
The BCL-2 dependent acute lymphoblastic leukemia (ALL) cell line, RS4;11(ATCC, CRL-1873), was cultured in RPMI-1640 complete medium (RPMI-1640 medium, HEPES (Gibco, 22400-105) supplemented with 10% fetal bovine serum (FBS) (Gibco, 10099-1441), 100 unit/ml penicillin and 100 μg/ml streptomycin (Gibco, 15140122)) and maintained in a humidified chamber at 37° C. containing 5% CO2.
To obtain BCL2-G101V knock-in cell pool, RS4;11 was co-transfected with the Cas9-gRNA which also expressed GFP label, and the Donor gene which contained the BCL2-G101V mutant sequence. After 48 hrs of electroporation, the GFP positive cells were collected through FACSAriaIII cell sorting system. Cell pool was recovered for 3 days and then cultured under 2 nM ABT-199 stress for 4 weeks. […] Then cells were plated in 96 well U-plate with 1 cell/well for 10000 wells for single clone selection. After 3-5 weeks growing, clones were successively screened by PCR sequencing. And three BCL2-G101V knock-in clones: H96, H142 and H233, have been picked out.
Three clones were validated by genome DNA and cDNA(mRNA) PCR sequencing, and BCL-2, BCL-xL and MCL-1 expression using Western Blot. The H96 clone was also validated by WES (whole exome-sequencing) and RNA-seq.
(2) Bcl 2-G101V Knock-In RS4;11 Cell Proliferation Assay
The BCL-2 G101V knock-in cell line H96 (derive from RS4;11) were used to study the cellular potency of BCL-2 inhibitors. The cells were cultured in RPMI-1640 complete medium (RPMI-1640 medium, HEPES (Gibco, 22400-105) supplemented with 10% fetal bovine serum (FBS) (Gibco, 10099-1441), 100 unit/ml penicillin and 100 μg/ml streptomycin (Gibco, 15140122)) and maintained in a humidified chamber at 37° C. containing 5% CO2. Each compound was serially diluted with 1 μM or 10 μM as the maximum concentration. To test the apoptotic effect of the compounds, the cells were seeded at 50,000 in 90 μl per well in 96-well plates and treated with 10-point dilution series of each compound for 48 hrs at 37° C. Cell viability was assessed after the treatment using CellTiter-GLO luminescent assay (Promega) according to the manufacturer's recommendations. Briefly, 30 μl of CellTiter-GLO reagent was added into 100 μl of cell culture. Mixture was agitated on an orbital shaker for 5 min to ensure cell lysis followed by 7 min incubation at room temperature to allow development and stabilization of luminescent signals, which corresponded to the quantity of ATP and thus the quantity of metabolically active cells. Luminescent signals were measured using PHERAstar FS reader (BMG). Mean IC50 values were determined with GraphPad Prism software.

The test system of assay [3] is RS4;11 (BCL-2 dependent acute lymphoblastic leukemia cell line). The experiment in a line: RS4;11 Cell Proliferation Assay. It counts as cell-based. Conditions: read-out: Cellular proliferation assay (IC50, nM) RS4. How it is done: Biological Example: RS4;11 Cell Proliferation Assay
The BCL-2 dependent acute lymphoblastic leukemia (ALL) cell line, RS4;11, was used to study the cellular potency of BCL-2 inhibitors. The cells (ATCC, CRL-1873) were cultured in RPMI-1640 complete medium (RPMI-1640 medium, HEPES (Gibco, 22400-105) supplemented with 10% fetal bovine serum (FBS) (Gibco, 10099-1441), 100 unit/ml penicillin and 100 μg/ml streptomycin (Gibco, 15140122)) and maintained in a humidified chamber at 37° C. containing 5% CO2. Each compound was serially diluted with 1 μM as the maximum concentration. To test the apoptotic effect of the compounds, the cells were seeded at 50,000 in 180 μl per well in 96-well plates and treated with 10-point dilution series of each compound for 48 hrs at 37° C. Cell viability was assessed after the treatment using CellTiter-GLO luminescent assay (Promega) according to the manufacturer's recommendations. Briefly, 30 μl of CellTiter-GLO reagent was added into 200 μl of cell culture. Mixture was agitated on an orbital shaker for 5 min to ensure cell lysis followed by 7 min incubation at room temperature to allow development and stabilization of luminescent signals, which corresponded to the quantity of ATP and thus the quantity of metabolically active cells. Luminescent signals were measured using PHERAstar FS reader (BMG). Mean IC50 values were determined with GraphPad Prism software.

Assay [4] addresses recombinant human Bcl-2 D103Y protein (Homo sapiens (Human), UniProt P10415, D103Y). As to the kind of experiment: Bcl-2-D103Y Biochemical Assay (TR-FRET). It counts as binding. As to the method: Biological Example: Bcl-2-D103Y Biochemical Assay
[…]. The TR-FRET signals (ex337 nm, em490 nm/520 nm) were read on BMG PHERAstar FSX instrument. The inhibition percentage of Bcl-2 D103Y interaction with its ligand in presence of increasing concentrations of compounds was calculated based on the ratio of fluorescence at 490 nm to that at 520 nm. The IC50 for each compound was derived from fitting the data to the four-parameter logistic equation by Dotmatics.

Assay [5] concerns the target Recombinant human Bcl-2 protein (Homo sapiens (Human), UniProt P10415). As to the kind of experiment: Bcl-2 TR-FRET Assay. It counts as binding. The procedure, abridged: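 Compounds were pre-incubated with 0.05 nM recombinant Bcl-2 for 0.5 h at room temperature in potassium phosphate buffer, pH 7.5. FITC-Bak peptide (0.5 nM) and Tb-cryptate antibody were then added for 1 h. Percent inhibition from TR-FRET signals gave IC50 values.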

The target of assay [6] is recombinant human Bcl-2-G101V protein (Homo sapiens (Human), UniProt P10415, G101V). As to the kind of experiment: Bcl-2-G101V TR-FRET Assay. It counts as binding. Conditions: Bcl-2 G101V mutant, TR-FRET; read-out: Biochemical assay (IC50, nM) Bcl-2 G101V. The procedure, abridged: as §1
Setting [7] is: Bcl-2 wild type, TR-FRET, read-out: Biochemical assay (IC50, nM) Bcl-2 WT.
[8] abbreviates: Homo sapiens, RS4-11, RS4;11 cells.

Six molecules from patent US20240376097A1, “BCL-2 Inhibitor” (BeiGene Ltd., priority 2020, published 2024) can be followed below.

By pIC50 is commonly meant −log10 of the IC50, conventionally taken in molar units.

pIC50: −log10 of the molar value. Read-outs that look alike come from different tables or passages of the source.

On to “2-((1H-pyrrolo[2,3-b]pyridin-5-yl)oxy)-N-((4-((((1r,4r)-4-bydroxy-4-methylcyclohexyl)methyl)amino)-3-nitrophenyl)sulfonyl)-4-(2-((R or S)-2-(2-isopropylphenyl)-4-(2-methoxyethyl)piperazin-1-yl)-7-azaspiro[3.5]nonan-7-yl)benzamide [Example 13b]”, for which the “Ratio of Bcl-2 G101V/WT” value in assay [1] was 22.1. The IC50 in assay [2] stood at 2.81 nM; in assay [3] (RS4;11 cells) it was 0.32 nM. Further, in assay [4] (ratio of IC50), the “Ratio of Bcl-2 D103Y/Bcl-2 WT” value stood at 12.

`CC(C)c1ccccc1[C@H]1CN(C(C)C)CCN1C1CC2(CCN(c3ccc(C(=O)NS(=O)(=O)c4ccc(NC[C@H]5CC[C@](C)(O)CC5)c([N+](=O)[O-])c4)c(Oc4cnc5[nH]ccc5c4)c3)CC2)C1` (single isomer, unassigned) [Example 3a, 2-((1H-pyrrolo[2,3-b]pyridin-5-yl)oxy)-N-((4-((((1r,4r)-4-hydroxy-4-methylcyclohexyl)methyl)amino)-3-nitrophenyl)sulfonyl)-4-(2-((S or R)-4-isopropyl-2-(2-isopropylphenyl)piperazin-1-yl)-7-azaspiro[3.5]nonan-7-yl)benzamide]: the IC50 in assay [5] (setting [7]) came out at 0.034 nM; in assay [6], 2.2 nM; in assay [2] (Homo sapiens), 35.1 nM; in assay [3] (setting [8]) it was 3.67 nM. In assay [1], the “Ratio of Bcl-2 G101V/WT” value is listed as 64.7.

For `CC(C)c1ccccc1[C@@H]1CN(C2CC2)CCN1C1CC2(CCN(c3ccc(C(=O)NS(=O)(=O)c4ccc(NC[C@H]5CC[C@](C)(O)CC5)c([N+](=O)[O-])c4)c(Oc4cnc5[nH]ccc5c4)c3)CC2)C1` (single isomer, unassigned) [Example 4, 2-((1H-pyrrolo[2,3-b]pyridin-5-yl)oxy)-4-(2-((R or S)-4-cyclopropyl-2-(2-isopropylphenyl)piperazin-1-yl)-7-azaspir[3.5]nonan-7-yl)-N-((4-((((1r,4r)-4-hydroxy-4-methylcyclohexyl)methyl)amino)-3-nitrophenyl)sulfonyl)benzamide], the IC50 in assay [5] (setting [7]) came to 0.045 nM; in assay [6], 1.6 nM; in assay [2] (Homo sapiens) it was 9.56 nM; in assay [3] (setting [8]), 0.87 nM. Also, in assay [1], the “Ratio of Bcl-2 G101V/WT” value was 35.6.

Consider `COCCN1CCN(C2CC3(CCN(c4ccc(C(=O)NS(=O)(=O)c5ccc(NC[C@H]6CC[C@](C)(O)CC6)c([N+](=O)[O-])c5)c(Oc5cnc6[nH]ccc6c5)c4)CC3)C2)[C@@H](c2ccccc2C(C)C)C1` (single isomer, unassigned) [Example 13a, 2-((1H-pyrrolo[2,3-b]pyridin-5-yl)oxy)-N-((4-((((1r,4r)-4-hydroxy-4-methylcyclohexyl)methyl)amino)-3-nitrophenyl)sulfonyl)-4-(2-((S or R)-2-(2-isopropylphenyl)-4-(2-methoxyethyl)piperazin-1-yl)-7-azaspiro[3.5]nonan-7-yl)benzamide], for which the IC50 in assay [5] (setting [7]) came to 0.038 nM; in assay [6] it was 3.6 nM; in assay [2] (Homo sapiens) it was 87.4 nM; in assay [3] (setting [8]) it was 10.5 nM. Besides, the “Ratio of Bcl-2 G101V/WT” value in assay [1] stood at 94.7.

Regarding `CC(C)c1ccccc1C1CN(Cc2cnn(C)c2)CCN1C1CC2(CCN(c3ccc(C(=O)NS(=O)(=O)c4ccc(NC[C@H]5CC[C@](C)(O)CC5)c([N+](=O)[O-])c4)c(Oc4cnc5[nH]ccc5c4)c3)CC2)C1` (single isomer, unassigned) [Example 22a, 2-((1H-pyrrolo[2,3-b]pyridin-5-yl)oxy)-N-((4-((((1r,4r)-4-hydroxy-4-methylcyclohexyl)methyl)amino)-3-nitrophenyl)sulfonyl)-4-(2-((R or S)-2-(2-isopropylphenyl)-4-((1-methyl-1H-pyrazol-4-yl)methyl)piperazin-1-yl)-7-azaspiro [3.5]nonan-7-yl)benzamide], the IC50 stood at 0.0079 nM in assay [5] (setting [7]); 0.0079 nM in assay [5] (wild type Bcl-2, unit inferred, read-out: Bcl-2 WT); 0.064 nM in assay [6]; 1.35 nM in assay [2] (Homo sapiens); 0.25 nM in assay [3] (setting [8]). For the same molecule, the pIC50 in assay [4] (TR-FRET, FITC labeled Bak peptide) is 10.39.

As for `CC(C)c1ccccc1[C@@H]1CN(Cc2cccc3c2OCCO3)CCN1C1CC2(CCN(c3ccc(C(=O)NS(=O)(=O)c4ccc(NC[C@H]5CC[C@](C)(O)CC5)c([N+](=O)[O-])c4)c(Oc4cnc5[nH]ccc5c4)c3)CC2)C1` [Example 79b, 2-((1H-pyrrolo[2,3-b]pyridin-5-yl)oxy)-4-(2-(S-4-((2,3-dihydrobenzo [b][1,4]dioxin-5-yl)methyl)-2-(2-isopropylphenyl)piperazin-1-yl)-7-azaspiro[3.5]nonan-7-yl)-N-((4-((((1r,4r)-4-hydroxy-4-methylcyclohexyl)methyl)amino)-3-nitrophenyl)sulfonyl)benzamide], the IC50 in assay [5] (setting [7]) came to 0.33 nM; in assay [6], 19 nM; in assay [2] (Homo sapiens) it was 0.68 nM; in assay [3] (setting [8]) it was 0.16 nM.
